Values of other authors as cited in patent publication US8778840B2, “Soluble liquid formulations of quinclorac ammonium salts” (BASF SE, priority 2007, dated 2014).

Conditions: pH 7 at 20° C.

## O=C(O)c1c(Cl)ccc2cc(Cl)cnc12 [Quinclorac, 3,7-dichloro-8-quinolinecarboxylic acid]
  solubility in water: 0.065 mg/kg
